Converted amounts (≈) assume the structure as drawn. “And” between values parts separate entries of the source, which are not always exact repeats. Equal values may be shown once. Read-outs that look alike come from different tables or passages of the source.
Columns and labels:
[1] = cited from earlier work
[2] = test system: Culex quinquefasciatus mosquitoes; assay: Topical bioassay on adult female Culex quinquefasciatus mosquitoes (knockdown 1 h, mortality 24 h; Colby calculation for combinations); assay type: in vivo
[3] = test system: Aedes aegypti mosquitoes; assay: Topical bioassay on adult female Aedes aegypti mosquitoes (knockdown 1 h, mortality 24 h; Colby calculation for combinations); assay type: in vivo
Excerpt: Components of a composition can have a synergistic or additive effect on insecticidal activity. Components have an additive effect when the effect of the combination is equal to the sum of the effects of each individual component. In contrast, components have a synergistic effect when the effect of the combination exceeds the sum of the effects of the components when applied individually. The effect (E) of a combination of two compounds may be calculated using the Colby formula (1) (S. R. Colby, “Calculating Synergistic and Antagonistic Responses of Herbicide Combinations”, Weeds 1967, 15, 20-22):
If the actual insecticidal kill rate is the calculated value (E), then the action of the combination is additive. If the actual insecticidal kill rate exceeds the calculated value (E), then the action of the combination is super-additive, that is, a synergistic effect is present. If the insecticidal kill rate is lower than the calculated value (E), then the action of the combination is considered antagonistic.
Adult female Aedes aegypti mosquitoes were segregated in 18″×18″ screen cages based on date of eclosion, therefore the exact age of the mosquitoes were known for bioassays.
Ten female mosquitoes, aged four to six days after eclosion, were aspirated out of their respective cage and into a small glass jar. The mosquitoes were then anesthetized with CO2 gas for 30 seconds. After the adults were anesthetized, they were quickly placed on a plastic platform for treatment application. Treatments were serially diluted (using a BrandTech Scientific Transferpette S pipette (100-1000 μL), labeled centrifuge tubes, and a vortex mixer) from stocks of insecticides using reagent grade acetone as the diluent to concentrations as indicated for each treatment solution. A treatment solution may contain additional ingredients as indicated for each study.
Using a Hamilton PB00-1 Repeating Dispenser with a Hamilton 25 Microliter Syringe, 0.5 μL of each treatment solution was applied to the thorax of each mosquito. Immediately following the application of the treatment, the mosquitoes were gently transferred into a clean paper cup and covered with screen. The mesh screen prevented the mosquitoes from escaping and allowed the specimens to be viewed for ratings. A cotton ball soaked with 10% sucrose solution was inserted into a side hole of each cup for hydration and nourishment. Each treatment variable in the study was replicated three times using separate cups for each replication.
The untreated controls treatments were anesthetized for 30 seconds and gently transferred to the paper cups. The acetone treated control was treated exactly as described above except that the solution applied to each mosquito was undiluted acetone.
The condition of the mosquitoes in each cup was recorded at one hour and 24 hours after initial treatment. The condition classifications used were (1) alive and flying, (2) alive and unable to fly, or (3) dead. The percent mortality for each treatment was calculated by summing the mortalities of each replicate then calculating the percent dead from the total number of mosquitoes.
Where indicated, the mortality data were subjected to probit analysis using the Statistical Analysis System Version 9.1 program PROC PROBIT (SAS Institute (2003) PROC user's manual, version 9.1. SAS Institute, Cary, N.C.).

[4] = test system: Cytochrome P450 enzyme; assay: P450 activity assay (7-ethoxycoumarin, fluorescence); assay type: biochemical, A. aegypti; conditions: FIG. 2; for inhibition of P450 activity: added to the assay
Experimental: Cytochrome P450 enzyme solution was prepared by homogenizing 15, 3 to 5 day old, A. aegypti females and centrifuging the mixture at 10,000 g for 1 minute. The pellet was discarded, and the supernatant was used as the P450 enzyme stock solution. 10 μL of this P450 enzyme stock and 90 μL of 7-ethoxycoumarin solution (0.526 mM of 7-ethoxycoumarin, 1.11 mM NADPH, 0.05 mM phosphate buffer) was added to each well of the micropipette plate to begin the reaction. During the reaction, the micropipette plate was covered with aluminum foil to prevent photo-bleaching. The reaction was incubated at 30° C. for 4 hours. The reaction was stopped by adding 30 μL of stop solution (0.1 mM glycine, pH 10.4, 50% ethanol). The micropipette plate was then analyzed by measuring the fluorescence (Emission=460 nm, Excitation=360 nm) of each well. High fluorescence was directly related to product, and thus indicated a high level of P450 activity.

C=C1CC[C@H]2O[C@]2(C)CC[C@@H]2[C@@H]1CC2(C)C [Caryophyllene Oxide-Beta]
Vapor Pressure (@ 25° C.) [1]: 0.01 mmHg
Solubility (in water @ 25° C.) [1]: 2.21 µg/mL (≈ 10 µM)

C=C(C)[C@H]1CC=C(C)CC1 [D-limonene]
Vapor Pressure (@ 25° C.) [1]: 1.541 mmHg

CN/C(=N/CC1CCOC1)N[N+](=O)[O-] (stereo not shown) [Dinotefuran, dinotefuran, reference compound]
1 hour knockdown ([2]; 0.008 μg/mosquito): 10%
% MORTALITY AFTER 24 HRS ([2]; 0.008 μg/mosquito): 77% and 73%
1 hour knockdown ([3]; 0.004 μg/mosquito): 0%
% MORTALITY AFTER 24 HRS ([3]; 0.004 μg/mosquito): 0%
1 hour knockdown ([3]; 0.006 μg/mosquito): 0% and 3%
mortality at 0.004 µg/mosquito ([3]; Aedes aegypti, topical, 24 h, read-out: % MORTALITY AFTER 24 HRS, 0.004 μg/mosquito): 0%
LD50 ([3]; topical application, adult Aedes aegypti): 0.06 μg/mosquito

C=C/C(C)=C/C/C=C(\C)CCC=C(C)C [Farnesene Alpha]
Vapor Pressure (@ 25° C.) [1]: 0.025 mmHg
Solubility (in water @ 25° C.) [1]: 0.011 µg/mL (≈ 0.0538 µM)

C=C1/C=C/[C@H](C(C)C)CC/C(C)=C/CC1 [Germacrene D]
Vapor Pressure (@ 25° C.) [1]: 0.023 mmHg
Solubility (in water @ 25° C.) [1]: 0.013 µg/mL (≈ 0.0636 µM)

C=CC(C)(O)CCC=C(C)C (stereo not shown) [Linalool]
Vapor Pressure (@ 25° C.) [1]: 0.16 mmHg
Viscosity (@ 25° C.) [1]: 4.4 mPa

CCCCOCCOCCOCc1cc2c(cc1CCC)OCO2 [PBO, piperonyl butoxide, reference compound]
inhibition of P450 activity [4]: acted as inhibitors

C=C(C)C1CC=C(C=O)CC1 (stereo not shown) [Perillaldehyde, perillaldehyde]
inhibition of P450 activity [4]: acted as inhibitors
inhibition of P450 activity relative to PBO ([4]; perillaldehyde at 1% vs PBO at 2%): as potent an inhibitor of P450 as PBO at 2%
inhibition of P450 activity relative to PBO ([4]; perillaldehyde at 10% vs PBO at 2%): a more potent inhibitor of P450 than PBO at 2%
1 hour knockdown ([2]; 2%): 33%
% MORTALITY AFTER 24 HRS ([2]; 2%): 13%
% MORTALITY AFTER 24 HRS ([2]; 3%): 13%
Vapor Pressure (@ 25° C.) [1]: 0.0463 mmHg
Solubility (in water @ 25° C.) [1]: 160.7 µg/mL (≈ 1070 µM)
1 hour knockdown ([3]; 3%): 53%
mortality at 1 % ([3]; Aedes aegypti, topical, 24 h, read-out: % MORTALITY AFTER 24 HRS, 1%): 3%
mortality at 1 % ([3]; Aedes aegypti, topical, 24 h, read-out: % MORTALITY AFTER 24 HRS, single active, 1%): 0%
mortality at 3 % ([3]; Aedes aegypti, topical, 24 h, read-out: % MORTALITY AFTER 24 HRS, single active, 3%): 73%

CC1=CCC2CC1C2(C)C (stereo not drawn) [Pinene Alpha]
Vapor Pressure (@ 25° C.) [1]: 4.75 mmHg

C=C1CCC2CC1C2(C)C (stereo not drawn) [Pinene Beta]
Vapor Pressure (@ 25° C.) [1]: 2.93 mmHg

C=C1CC[C@@H]2[C@H]([C@H]3[C@H]1CC[C@]3(C)O)C2(C)C [Spathulenol]
Vapor Pressure (@ 25° C.) [1]: 1.2 × 10^−4 mmHg
Solubility (in water @ 25° C.) [1]: 12.4 µg/mL (≈ 56.3 µM)

C=C1CC/C=C(\C)CC[C@@H]2[C@@H]1CC2(C)C [β-Caryophyllene]
Vapor Pressure (@ 25° C.) [1]: 0.031 mmHg
Solubility (in water @ 25° C.) [1]: 0.05 µg/mL (≈ 0.245 µM)
1 hour knockdown ([3]; 1%): 0%
% MORTALITY AFTER 24 HRS ([3]; 1%): 0%
% MORTALITY AFTER 24 HRS ([3]; 3%): 0%
% MORTALITY AFTER 24 HRS ([3]; 3%, listed as β-CARYOPHYLLENE): 77%
1 hour knockdown ([3]; 5%): 10%
% MORTALITY AFTER 24 HRS ([3]; 5%): 17%
1 hour knockdown ([3]; 10%): 57%
% MORTALITY AFTER 24 HRS ([3]; 10%): 40%
1 hour knockdown ([3]; 20%): 93%
% MORTALITY AFTER 24 HRS ([3]; 20%): 83%
% MORTALITY AFTER 24 HRS ([3]; single active, 3%): 7% and 10%

— patent publication US10349662B2, “Insecticidal compositions and methods of using the same” (priority 2011, dated 2019)
